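Step 1: Grow cells in 96-well plates. Step 2: Expose to compound for 48 hours at 5 concentrations. Step 3: Interpolate endpoints linearly; if unreached, use highest concentration. GI50 marks 50% less growth.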 The source made the active and inactive calls. No stated cut-off is given here; in the data, active = GI50 up to about 1.1 µM and inactive = higher.
Assays:
Assay in all cases: growth of human tumour cells (NCI), 48 h
HOP-92 = tested on: HOP-92
SNB-75 = tested on: SNB-75
NCI-H23 = tested on: NCI-H23
KM12 = tested on: KM12
SR = tested on: SR
U-251 = tested on: U-251
SK-MEL-5 = tested on: SK-MEL-5
A498 = tested on: A498
PC-3 = tested on: PC-3
TK-10 = tested on: TK-10
UACC-62 = tested on: UACC-62
HCT-116 = tested on: HCT-116
SK-OV-3 = tested on: SK-OV-3
SW-620 = tested on: SW-620
LOX IMVI = tested on: LOX IMVI
OVCAR-8 = tested on: OVCAR-8
SN12C = tested on: SN12C
Malme-3M = tested on: Malme-3M
HT-29 = tested on: HT-29
NCI-H522 = tested on: NCI-H522
DU-145 = tested on: DU-145
SF-295 = tested on: SF-295
COLO 205 = tested on: COLO 205
BT-549 = tested on: BT-549
SNB-19 = tested on: SNB-19
M14 = tested on: M14
SF-539 = tested on: SF-539
UACC-257 = tested on: UACC-257
SK-MEL-2 = tested on: SK-MEL-2
SK-MEL-28 = tested on: SK-MEL-28
MDA-N = tested on: MDA-N
CCRF-CEM = tested on: CCRF-CEM
EKVX = tested on: EKVX
UO-31 = tested on: UO-31
MOLT-4 = tested on: MOLT-4
786-0 = tested on: 786-0
MCF7 = tested on: MCF7
NCI-H460 = tested on: NCI-H460
NCI/ADR-RES = tested on: NCI/ADR-RES
CAKI-1 = tested on: CAKI-1
Hs-578T = tested on: Hs-578T
SF-268 = tested on: SF-268
ACHN = tested on: ACHN
NCI-H226 = tested on: NCI-H226
HOP-62 = tested on: HOP-62
OVCAR-3 = tested on: OVCAR-3
MDA-MB-435 = tested on: MDA-MB-435
OVCAR-5 = tested on: OVCAR-5
HCT-15 = tested on: HCT-15
K562 = tested on: K562
MDA-MB-231 = tested on: MDA-MB-231
T47D = tested on: T47D
OVCAR-4 = tested on: OVCAR-4
RXF 393 = tested on: RXF 393
A549 = tested on: A549
HL-60 = tested on: HL-60
RPMI-8226 = tested on: RPMI-8226
IGROV-1 = tested on: IGROV-1

Measured: GI50

Clc1ccc(/C=N/c2ccc3c(c2)Cc2ccccc2-3)c(Cl)c1
40.6 µM: HCT-15
inactive: HOP-92 > 100 µM | SNB-75 > 100 µM | NCI-H23 > 100 µM | KM12 > 100 µM | SR 45.9 µM | U-251 > 100 µM | SK-MEL-5 > 100 µM | A498 > 100 µM | PC-3 > 100 µM | TK-10 > 100 µM | UACC-62 > 100 µM | HCT-116 58.1 µM | SK-OV-3 > 100 µM | SW-620 > 100 µM | LOX IMVI 92.9 µM | OVCAR-8 > 100 µM | SN12C > 100 µM | Malme-3M > 100 µM | HT-29 > 100 µM | NCI-H522 > 100 µM | DU-145 > 100 µM | SF-295 > 100 µM | COLO 205 > 100 µM | BT-549 > 100 µM | SNB-19 > 100 µM | M14 > 100 µM | SF-539 > 100 µM | UACC-257 > 100 µM | SK-MEL-2 > 100 µM | SK-MEL-28 > 100 µM | MDA-N 53.2 µM | CCRF-CEM 88.5 µM | EKVX > 100 µM | UO-31 > 100 µM | MOLT-4 > 100 µM | 786-0 > 100 µM | MCF7 > 100 µM | NCI-H460 > 100 µM | NCI/ADR-RES > 100 µM | CAKI-1 > 100 µM | Hs-578T > 100 µM | SF-268 > 100 µM | ACHN > 100 µM | NCI-H226 > 100 µM | HOP-62 > 100 µM | OVCAR-3 > 100 µM | MDA-MB-435 50.7 µM | OVCAR-5 > 100 µM | K562 58.3 µM | MDA-MB-231 > 100 µM | T47D > 100 µM | OVCAR-4 > 100 µM | RXF 393 > 100 µM | A549 > 100 µM | HL-60 77.1 µM | RPMI-8226 75.2 µM | IGROV-1 > 100 µM

CCCCNN
inactive: SNB-75 > 100 µM | NCI-H23 > 100 µM | KM12 > 100 µM | SR > 100 µM | U-251 > 100 µM | SK-MEL-5 95.7 µM | A498 > 100 µM | PC-3 > 100 µM | TK-10 > 100 µM | UACC-62 > 100 µM | HCT-116 > 100 µM | SK-OV-3 > 100 µM | SW-620 > 100 µM | LOX IMVI > 100 µM | OVCAR-8 > 100 µM | SN12C > 100 µM | Malme-3M > 100 µM | HT-29 > 100 µM | NCI-H522 65.3 µM | DU-145 > 100 µM | SF-295 > 100 µM | COLO 205 > 100 µM | BT-549 > 100 µM | SNB-19 > 100 µM | M14 > 100 µM | UACC-257 > 100 µM | SK-MEL-2 > 100 µM | SK-MEL-28 > 100 µM | MDA-N > 100 µM | CCRF-CEM 43 µM | EKVX > 100 µM | UO-31 > 100 µM | MOLT-4 > 100 µM | 786-0 > 100 µM | MCF7 > 100 µM | NCI/ADR-RES > 100 µM | CAKI-1 > 100 µM | Hs-578T > 100 µM | ACHN > 100 µM | NCI-H226 > 100 µM | HOP-62 > 100 µM | OVCAR-3 > 100 µM | MDA-MB-435 > 100 µM | OVCAR-5 > 100 µM | K562 > 100 µM | MDA-MB-231 > 100 µM | T47D > 100 µM | OVCAR-4 > 100 µM | RXF 393 > 100 µM | A549 > 100 µM | HL-60 > 100 µM | RPMI-8226 > 100 µM | IGROV-1 > 100 µM
> 100 µM: HCT-15
